Source: US10485235B2, “Aryloxypyrimidinyl ethers as herbicides” (FMC Corporation, priority 2015, dated 2019)

Tests used:
Format in all cases: in vivo
[1] = system: pigweed (Amaranthus retroflexus); experiment: Test A preemergence, pigweed; conditions: Preemergence, 0 to 100 scale (0 no effect, 100 complete control)
Description: (§1) Seeds of plant species selected from barnyardgrass (Echinochloa crus-galli), kochia (Kochia scoparia), ragweed (common ragweed, Ambrosia elatior), ryegrass, Italian (Italian ryegrass, Lolium multiflorum), foxtail, giant (giant foxtail, Setaria faberii), and pigweed (Amaranthus retroflexus), were planted into a blend of loam soil and sand and treated preemergence with a directed soil spray using test chemicals formulated in a non-phytotoxic solvent mixture which included a surfactant.
(§2) At the same time, plants selected from these weed species and also wheat (Triticum aestivum), corn (Zea mays), blackgrass (Alopecurus myosuroides), and galium (catchweed bedstraw, Galium aparine), were planted in pots containing the same blend of loam soil and sand and treated with postemergence applications of test chemicals formulated in the same manner. Plants ranged in height from 2 to 10 cm and were in the one- to two-leaf stage for the postemergence treatment. Treated plants and untreated controls were maintained in a greenhouse for approximately 10 days, after which time all treated plants were compared to untreated controls and visually evaluated for injury. Plant response ratings, summarized in Table A, are based on a 0 to 100 scale where 0 is no effect and 100 is complete control. A dash (—) response means no test result.

kochia (Kochia scoparia) [2] = experiment: Test A postemergence, kochia; conditions: postemergence, 0 to 100 scale, 0 is no effect, 100 is complete control, approximately 10 days
Description: as §1, §2

[3] = system: barnyardgrass (Echinochloa crus-galli); experiment: Test A postemergence, barnyardgrass; conditions: postemergence, 0 to 100 scale, 0 is no effect, 100 is complete control, approximately 10 days
Description: as §1, §2

[4] = system: ragweed (common ragweed, Ambrosia elatior); experiment: Test A preemergence, ragweed; conditions: Preemergence, 0 to 100 scale (0 no effect, 100 complete control)
Description: as §1, §2

corn (Zea mays) = experiment: Test A postemergence, corn; conditions: postemergence, 0 to 100 scale, 0 is no effect, 100 is complete control, approximately 10 days
Description: as §1, §2

[5] = system: wheat (Triticum aestivum); experiment: Test A postemergence, wheat; conditions: postemergence, 0 to 100 scale, 0 is no effect, 100 is complete control, approximately 10 days
Description: as §1, §2

[6] = system: ragweed (common ragweed, Ambrosia elatior); experiment: Test A postemergence, ragweed; conditions: postemergence, 0 to 100 scale, 0 is no effect, 100 is complete control, approximately 10 days
Description: as §1, §2

[7] = system: galium (catchweed bedstraw, Galium aparine); experiment: Test A postemergence, galium; conditions: postemergence, 0 to 100 scale, 0 is no effect, 100 is complete control, approximately 10 days
Description: as §1, §2

[8] = system: pigweed (Amaranthus retroflexus); experiment: Test A postemergence, pigweed; conditions: postemergence, 0 to 100 scale, 0 is no effect, 100 is complete control, approximately 10 days
Description: as §1, §2

[9] = system: blackgrass (Alopecurus myosuroides); experiment: Test A postemergence, blackgrass; conditions: postemergence, 0 to 100 scale, 0 is no effect, 100 is complete control, approximately 10 days
Description: as §1, §2

[10] = system: foxtail, giant (giant foxtail, Setaria faberii); experiment: Test A postemergence, giant foxtail; conditions: postemergence, 0 to 100 scale, 0 is no effect, 100 is complete control, approximately 10 days
Description: as §1, §2

[11] = system: ryegrass, Italian (Italian ryegrass, Lolium multiflorum); experiment: Test A postemergence, Italian ryegrass; conditions: postemergence, 0 to 100 scale, 0 is no effect, 100 is complete control, approximately 10 days
Description: as §1, §2

[12] = system: foxtail, giant (giant foxtail, Setaria faberii); experiment: Test A preemergence, giant foxtail; conditions: Preemergence, 0 to 100 scale (0 no effect, 100 complete control)
Description: as §1, §2

[13] = system: barnyardgrass (Echinochloa crus-galli); experiment: Test A preemergence, barnyardgrass; conditions: Preemergence, 0 to 100 scale (0 no effect, 100 complete control)
Description: as §1, §2

kochia (Kochia scoparia) [14] = experiment: Test A preemergence, kochia; conditions: Preemergence, 0 to 100 scale (0 no effect, 100 complete control)
Description: as §1, §2

[15] = system: ryegrass, Italian (Italian ryegrass, Lolium multiflorum); experiment: Test A preemergence, Italian ryegrass; conditions: Preemergence, 0 to 100 scale (0 no effect, 100 complete control)
Description: as §1, §2

| SMILES | Plant response rating, Pigweed ([1]; 31 g ai/ha) | Plant response rating, Pigweed ([1]; 125 g ai/ha) | Plant response rating, Kochia (kochia (Kochia scoparia) [2]; 31 g ai/ha) | Plant response rating, Kochia (kochia (Kochia scoparia) [2]; 125 g ai/ha) | Plant response rating, Barnyardgrass ([3]; 31 g ai/ha) | Plant response rating, Barnyardgrass ([3]; 125 g ai/ha) | Plant response rating, Ragweed ([4]; 31 g ai/ha) | Plant response rating, Ragweed ([4]; 125 g ai/ha) | Plant response rating, Corn (corn (Zea mays); 31 g ai/ha) | Plant response rating, Corn (corn (Zea mays); 125 g ai/ha) | Plant response rating, Wheat ([5]; 31 g ai/ha) | Plant response rating, Wheat ([5]; 125 g ai/ha) | Plant response rating, Ragweed ([6]; 31 g ai/ha) | Plant response rating, Ragweed ([6]; 125 g ai/ha) | Plant response rating, Galium ([7]; 31 g ai/ha) | Plant response rating, Galium ([7]; 125 g ai/ha) | Plant response rating, Pigweed ([8]; 31 g ai/ha) | Plant response rating, Pigweed ([8]; 125 g ai/ha) | Plant response rating, Blackgrass ([9]; 31 g ai/ha) | Plant response rating, Blackgrass ([9]; 125 g ai/ha) | also measured |
| --- | --- | --- | --- | --- | --- | --- | --- | --- | --- | --- | --- | --- | --- | --- | --- | --- | --- | --- | --- | --- | --- |
| N#Cc1cccc(Oc2ncc(Cl)cn2)c1OC/C=C/Cl [Compound 7] | 60 | 100 | 90 | 100 | 10 | 90 | 0 | 0 | 10 | 20 | 0 | 10 | 0 | 10 | 50 | 80 | 60 | 90 | 10 | 30 | Plant response rating, Foxtail, Giant ([10]; 31 g ai/ha): 10; Plant response rating, Foxtail, Giant ([10]; 125 g ai/ha): 90; Plant response rating, Ryegrass, Italian ([11]; 31 g ai/ha): 10; Plant response rating, Ryegrass, Italian ([11]; 125 g ai/ha): 50; Plant response rating, Foxtail, Giant ([12]; 31 g ai/ha): 60; Plant response rating, Foxtail, Giant ([12]; 125 g ai/ha): 100; Plant response rating, Barnyardgrass ([13]; 31 g ai/ha): 20; Plant response rating, Barnyardgrass ([13]; 125 g ai/ha): 100; Plant response rating, Kochia (kochia (Kochia scoparia) [14]; 31 g ai/ha): 70; Plant response rating, Kochia (kochia (Kochia scoparia) [14]; 125 g ai/ha): 100; Plant response rating, Ryegrass, Italian ([15]; 31 g ai/ha): 0; Plant response rating, Ryegrass, Italian ([15]; 125 g ai/ha): 10 |
| N#Cc1cccc(Oc2ncc(Cl)cn2)c1OCCCF [Compound 15] | 100 | 100 | 50 | 80 | 60 | 90 | 0 | 0 | 10 | 10 | 0 | 0 | 0 | 20 | 20 | 50 | 60 | 70 | 0 | 10 | Plant response rating, Foxtail, Giant ([10]; 31 g ai/ha): 10; Plant response rating, Foxtail, Giant ([10]; 125 g ai/ha): 30; Plant response rating, Ryegrass, Italian ([11]; 31 g ai/ha): 0; Plant response rating, Ryegrass, Italian ([11]; 125 g ai/ha): 10; Plant response rating, Foxtail, Giant ([12]; 31 g ai/ha): 30; Plant response rating, Foxtail, Giant ([12]; 125 g ai/ha): 90; Plant response rating, Barnyardgrass ([13]; 31 g ai/ha): 0; Plant response rating, Barnyardgrass ([13]; 125 g ai/ha): 20; Plant response rating, Kochia (kochia (Kochia scoparia) [14]; 31 g ai/ha): 50; Plant response rating, Kochia (kochia (Kochia scoparia) [14]; 125 g ai/ha): 100; Plant response rating, Ryegrass, Italian ([15]; 31 g ai/ha): 0; Plant response rating, Ryegrass, Italian ([15]; 125 g ai/ha): 10 |
